System: yeast genes (expressed mRNA)
Assay: DNA chip measurement of expressed mRNA of yeast genes after culture with a toxic chemical substance
Assay type: cell-based, Saccharomyces cerevisiae S288C
Method in brief: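 Yeast S288C, YPD 25° C; toxicant at log phase, 2 h, sublethal growth-inhibiting conc.; no-chemical control. Hot SDS/acetate RNA extraction, oligo-dT mRNA, Cy3/Cy5-dUTP RT. Whole-genome chip, 65° C >12 h. Readout: treated/control intensity ratio, ≥2 significant.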

How did the “The level of expressed mRNA in the presence of chemical substance/The level of expressed mRNA in the absence of chemical substance” value (yeast gene YJL151C, cultured two hours with substance) turn out when COc1cc(CNC(=O)CCCCC=CC(C)C)ccc1O [(12), 8-Methyl-N-vanillyl-6-nonenamide] was run?
Its value is 1.3.

What about the “The level of expressed mRNA in the presence of chemical substance/The level of expressed mRNA in the absence of chemical substance” value (yeast gene YJL152W, cultured two hours with substance) of the same molecule?
Its value is 1.0.

And the “The level of expressed mRNA in the presence of chemical substance/The level of expressed mRNA in the absence of chemical substance” value (yeast gene YJL161W, cultured two hours with substance)?
The value was 1.0.

What about the “The level of expressed mRNA in the presence of chemical substance/The level of expressed mRNA in the absence of chemical substance” value (yeast gene YJL165C (stress protein genes)) of the same molecule?
Its value is 0.9.

What about the “The level of expressed mRNA in the presence of chemical substance/The level of expressed mRNA in the absence of chemical substance” value (yeast gene YJL171C, cultured two hours with substance) of the same molecule?
Its value is 1.0.

And the “The level of expressed mRNA in the presence of chemical substance/The level of expressed mRNA in the absence of chemical substance” value (yeast gene YJL186W, cultured two hours with substance)?
The value was 0.6.

And the “The level of expressed mRNA in the presence of chemical substance/The level of expressed mRNA in the absence of chemical substance” value (yeast gene YJR008W, cultured two hours with substance)?
The value was 1.3.

What about the “The level of expressed mRNA in the presence of chemical substance/The level of expressed mRNA in the absence of chemical substance” value (yeast gene YJR054W, cultured two hours with substance) of the same molecule?
The value was 0.9.

And the “The level of expressed mRNA in the presence of chemical substance/The level of expressed mRNA in the absence of chemical substance” value (yeast gene YKL071W, cultured two hours with substance)?
Its value is 1.0.

And the “The level of expressed mRNA in the presence of chemical substance/The level of expressed mRNA in the absence of chemical substance” value (yeast gene YKL086W, cultured two hours with substance)?
Its value is 0.6.

And the “The level of expressed mRNA in the presence of chemical substance/The level of expressed mRNA in the absence of chemical substance” value (yeast gene YKL151C, cultured two hours with substance)?
Its value is 1.0.

And the “The level of expressed mRNA in the presence of chemical substance/The level of expressed mRNA in the absence of chemical substance” value (yeast gene YKL152C, cultured for two hours with substance)?
Its value is 1.5.

What about the “The level of expressed mRNA in the presence of chemical substance/The level of expressed mRNA in the absence of chemical substance” value (yeast gene YKL153W, cultured two hours with substance) of the same molecule?
The value was 1.1.

What about the “The level of expressed mRNA in the presence of chemical substance/The level of expressed mRNA in the absence of chemical substance” value (yeast gene YKL195W, cultured two hours with substance) of the same molecule?
The value was 1.1.

And the “The level of expressed mRNA in the presence of chemical substance/The level of expressed mRNA in the absence of chemical substance” value (yeast gene YKL213C, metabolism protein genes)?
Its value is 0.9.

What about the “The level of expressed mRNA in the presence of chemical substance/The level of expressed mRNA in the absence of chemical substance” value (yeast gene YKR075C, cultured two hours with substance) of the same molecule?
Its value is 2.3.

And the “The level of expressed mRNA in the presence of chemical substance/The level of expressed mRNA in the absence of chemical substance” value (yeast gene YKR091W, cultured two hours with substance)?
Its value is 0.9.

What about the “The level of expressed mRNA in the presence of chemical substance/The level of expressed mRNA in the absence of chemical substance” value (yeast gene YLR008C, cultured two hours with substance) of the same molecule?
Its value is 3.5.

And the “The level of expressed mRNA in the presence of chemical substance/The level of expressed mRNA in the absence of chemical substance” value (yeast gene YLR054C, cultured two hours with substance)?
The value was 1.1.

And the “The level of expressed mRNA in the presence of chemical substance/The level of expressed mRNA in the absence of chemical substance” value (yeast gene YLR103C, DNA repair protein genes, cultured two hours with substance)?
Its value is 1.6.

And the “The level of expressed mRNA in the presence of chemical substance/The level of expressed mRNA in the absence of chemical substance” value (yeast gene YLR149C, cultured two hours with substance)?
Its value is 2.0.

What about the “The level of expressed mRNA in the presence of chemical substance/The level of expressed mRNA in the absence of chemical substance” value (yeast gene YLR152C, cultured two hours with substance) of the same molecule?
Its value is 1.0.

What about the “The level of expressed mRNA in the presence of chemical substance/The level of expressed mRNA in the absence of chemical substance” value (yeast gene YLR194C, cultured two hours with substance) of the same molecule?
The value was 1.6.

What about the “The level of expressed mRNA in the presence of chemical substance/The level of expressed mRNA in the absence of chemical substance” value (yeast gene YLR273C) of the same molecule?
The value was 0.9.

And the “The level of expressed mRNA in the presence of chemical substance/The level of expressed mRNA in the absence of chemical substance” value (yeast gene YLR324W, cultured two hours with substance)?
The value was 0.8.

And the “The level of expressed mRNA in the presence of chemical substance/The level of expressed mRNA in the absence of chemical substance” value (yeast gene YLR345W, cultured for two hours with substance)?
Its value is 1.6.

And the “The level of expressed mRNA in the presence of chemical substance/The level of expressed mRNA in the absence of chemical substance” value (yeast gene YLR346C, cultured two hours with substance)?
Its value is 4.2.

What about the “The level of expressed mRNA in the presence of chemical substance/The level of expressed mRNA in the absence of chemical substance” value (yeast gene YLR348C, metabolism protein genes) of the same molecule?
The value was 0.9.

What about the “The level of expressed mRNA in the presence of chemical substance/The level of expressed mRNA in the absence of chemical substance” value (yeast gene YLR350W, cultured two hours with substance) of the same molecule?
The value was 1.8.

And the “The level of expressed mRNA in the presence of chemical substance/The level of expressed mRNA in the absence of chemical substance” value (yeast gene YLR387C, cultured two hours with substance)?
Its value is 1.1.

What about the “The level of expressed mRNA in the presence of chemical substance/The level of expressed mRNA in the absence of chemical substance” value (yeast gene YLR460C, cultured two hours with substance) of the same molecule?
Its value is 0.4.

What about the “The level of expressed mRNA in the presence of chemical substance/The level of expressed mRNA in the absence of chemical substance” value (yeast gene YML054C, cultured for two hours with substance) of the same molecule?
The value was 1.8.

And the “The level of expressed mRNA in the presence of chemical substance/The level of expressed mRNA in the absence of chemical substance” value (yeast gene YML117W, cultured two hours with substance)?
Its value is 0.8.

What about the “The level of expressed mRNA in the presence of chemical substance/The level of expressed mRNA in the absence of chemical substance” value (yeast gene YMR009W, cultured two hours with substance) of the same molecule?
Its value is 0.6.

And the “The level of expressed mRNA in the presence of chemical substance/The level of expressed mRNA in the absence of chemical substance” value (yeast gene YMR067C, cultured two hours with substance)?
The value was 1.1.

And the “The level of expressed mRNA in the presence of chemical substance/The level of expressed mRNA in the absence of chemical substance” value (yeast gene YMR090W, cultured two hours with substance)?
The value was 2.2.

And the “The level of expressed mRNA in the presence of chemical substance/The level of expressed mRNA in the absence of chemical substance” value (yeast gene YMR095C, cultured two hours with substance)?
The value was 0.8.

And the “The level of expressed mRNA in the presence of chemical substance/The level of expressed mRNA in the absence of chemical substance” value (yeast gene YMR097C, cultured two hours with substance)?
The value was 1.2.

What about the “The level of expressed mRNA in the presence of chemical substance/The level of expressed mRNA in the absence of chemical substance” value (yeast gene YMR102C, cultured two hours with substance) of the same molecule?
Its value is 2.4.

What about the “The level of expressed mRNA in the presence of chemical substance/The level of expressed mRNA in the absence of chemical substance” value (yeast gene YMR107W, cultured two hours with substance) of the same molecule?
The value was 0.8.

And the “The level of expressed mRNA in the presence of chemical substance/The level of expressed mRNA in the absence of chemical substance” value (yeast gene YMR180C, cultured two hours with substance)?
The value was 1.2.

And the “The level of expressed mRNA in the presence of chemical substance/The level of expressed mRNA in the absence of chemical substance” value (yeast gene YMR184W, cultured two hours with substance)?
The value was 1.7.

And the “The level of expressed mRNA in the presence of chemical substance/The level of expressed mRNA in the absence of chemical substance” value (yeast gene YMR191W, cultured two hours with substance)?
Its value is 1.8.

And the “The level of expressed mRNA in the presence of chemical substance/The level of expressed mRNA in the absence of chemical substance” value (yeast gene YMR215W, cultured two hours with the chemical substance)?
The value was 0.4.

What about the “The level of expressed mRNA in the presence of chemical substance/The level of expressed mRNA in the absence of chemical substance” value (yeast gene YMR295C, cultured two hours with substance) of the same molecule?
The value was 1.1.

And the “The level of expressed mRNA in the presence of chemical substance/The level of expressed mRNA in the absence of chemical substance” value (yeast gene YMR315W, cultured two hours with substance)?
The value was 2.0.

What about the “The level of expressed mRNA in the presence of chemical substance/The level of expressed mRNA in the absence of chemical substance” value (yeast gene YMR316W, cultured two hours with substance) of the same molecule?
The value was 1.9.

And the “The level of expressed mRNA in the presence of chemical substance/The level of expressed mRNA in the absence of chemical substance” value (yeast gene YNL044W, cultured two hours with substance)?
Its value is 1.0.

And the “The level of expressed mRNA in the presence of chemical substance/The level of expressed mRNA in the absence of chemical substance” value (yeast gene YNL045W, metabolism protein genes)?
The value was 0.9.

And the “The level of expressed mRNA in the presence of chemical substance/The level of expressed mRNA in the absence of chemical substance” value (yeast gene YNL074C, cultured two hours with substance)?
Its value is 0.9.
